Measurements reported in patent publication US12594281B2, “Pharmaceutical dosage forms and methods of use” (EMALEX BIOSCIENCES, INC., priority 2024, dated 2026).
Where “and” joins values, the source holds several entries; their conditions need not be identical. Equal entries are not always repeated. Where two headings read alike, the source gives them in different places. Values belong to the compound of their own block, whether it stands above or below them.

Key:
[1] = Phase 1 absorption, metabolism and excretion study of [14C]-ecopipam, single oral capsule dose; assay type: in vivo, human
Text: Healthy subjects of any ethnic origin, aged between 35 and 55 years, inclusive, with a body mass index between 18.0 and 30.0 kg/m^2, inclusive, were selected for the study.

[2] = minipig, in vivo
Text: (§2) The minipigs were 4-5 months old with a weight range within 10-15 kg at dosing. 3 male animals were used.
(§3) The concentration-time data were normalized for differences in dose.

^3H-Spip binding site = ^3H-Spip binding site (Homo sapiens, UniProt P14416); settings: read-out: Ki ^3H-Spip; cited from earlier work
^3H-23390 binding site = ^3H-23390 binding site (Homo sapiens, UniProt P21728); settings: read-out: Ki ^3H-23390; cited from earlier work
[3] = cited from earlier work
[4] = BCS solubility of Ecopipam HCl in pH buffers and bio-relevant media; assay type: physicochemical; settings: for solubility at 24 h: 37 °C, thermodynamic from solid; for Solubility / Purity at 24 hours in solubility test: 37° C.
Experimental: Solubility and final pH were the average of three parallel values. Purity was that of 24 hours. N/A means not performed.

[5] = Pharmacokinetics of sublingual vs oral tablet in minipigs
Text: as §2, §3

[6] = Clinical drug-drug interaction study with divalproate sodium, general UGT inhibitor (EBS-101-HV-102); assay type: in vivo, human; settings: divalproate sodium co-administered with oral ecopipam
Text: (§1) The results from these studies are summarized in Table 7 below along with clinical recommendations.

[7] = Clinical drug-drug interaction study with rifampicin (EBS-101-HV-106); assay type: in vivo, human; settings: rifampicin co-administered with oral ecopipam
Text: as §1

[8] = Clinical drug-drug interaction study with mefenamic acid, specific UGT1A9 inhibitor (EBS-101-HV-102); assay type: in vivo, human; settings: mefenamic acid co-administered with oral ecopipam
Text: as §1

[9] = Phase 2 exposure-response for efficacy in Tourette's Disorder; assay type: in vivo, human; settings: logistic regression model
[10] = Exposure-response analyses for safety (sedation, QTc); set-up: species or system human; settings: in vivo
Text: Exposure-response analyses have been conducted for safety using sedation as an endpoint and cardiac safety (QTc).

[11] = Thorough QT study with C-QT analysis (EBS-101-HV-105); assay type: in vivo, human; settings: for 10 msec increase in ΔΔQTcF interval: primary model
Experimental: A randomized, double-blind, single dose, 4-way crossover thorough QT study was conducted with an open-label active control (EBS-101-HV-105, 2024).
The primary endpoint for this study was pre-specified to be based on C-QT analysis using the methods outlined in the white paper (Garnett C, 2018) (Garnett C B. P., 2018).

[12] = single oral dose 200 mg, fasted
[13] = after single oral dose of [14C]-ecopipam HCl
[14] = minipig, dose-normalized, Zydis ODT 25 mg sublingual vs IR tablet 50 mg oral (ecopipam HCl)
[15] = single oral dose 200 mg [14C]-ecopipam HCl
[16] = single dose of ecopipam 537.6 mg

Sequence of ^3H-23390 binding site (P21728 whole entry): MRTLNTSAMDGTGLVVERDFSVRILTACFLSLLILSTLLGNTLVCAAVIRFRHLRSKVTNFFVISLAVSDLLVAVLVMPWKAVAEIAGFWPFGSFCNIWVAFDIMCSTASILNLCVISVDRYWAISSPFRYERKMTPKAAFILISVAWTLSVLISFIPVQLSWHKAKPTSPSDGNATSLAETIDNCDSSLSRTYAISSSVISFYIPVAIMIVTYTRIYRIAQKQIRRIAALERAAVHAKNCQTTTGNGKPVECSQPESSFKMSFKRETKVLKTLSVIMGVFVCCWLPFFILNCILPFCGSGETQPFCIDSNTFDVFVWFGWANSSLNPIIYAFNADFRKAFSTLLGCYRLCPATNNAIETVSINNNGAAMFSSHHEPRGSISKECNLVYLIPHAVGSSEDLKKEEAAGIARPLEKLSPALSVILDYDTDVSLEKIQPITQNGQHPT
Sequence of ^3H-Spip binding site (P14416 whole entry): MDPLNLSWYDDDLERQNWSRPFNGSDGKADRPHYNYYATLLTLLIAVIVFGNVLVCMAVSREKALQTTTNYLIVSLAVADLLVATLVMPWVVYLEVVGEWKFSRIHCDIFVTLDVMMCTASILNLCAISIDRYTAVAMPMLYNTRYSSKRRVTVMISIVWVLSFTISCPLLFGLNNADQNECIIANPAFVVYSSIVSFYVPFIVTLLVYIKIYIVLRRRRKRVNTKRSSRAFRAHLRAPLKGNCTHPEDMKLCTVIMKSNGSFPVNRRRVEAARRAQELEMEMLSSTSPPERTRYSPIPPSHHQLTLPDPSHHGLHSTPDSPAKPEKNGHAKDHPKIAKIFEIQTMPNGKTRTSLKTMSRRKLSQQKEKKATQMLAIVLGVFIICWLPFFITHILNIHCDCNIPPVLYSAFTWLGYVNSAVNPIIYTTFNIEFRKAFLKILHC

SMILES: Oc1cc2c(cc1Cl)CCNC1CCc3ccccc3C21 (stereo in doubt) [EBS-101-40853]
Geometric mean AUC ratio of plasma analyte to plasma total radioactivity ([1]; human, in vivo, po, 200 mg): 0.00178
Percentage of dose excreted in urine as analyte (geometric mean) ([1]; in vivo, po): 0.0645%
Share of radioactivity in plasma ([1]; in vivo, po): 0.26%
Geometric mean apparent terminal elimination half-life (t½) of analyte ([1]; in vivo, po, 200 mg): 25.6 h
Geometric mean renal clearance ([1]; in vivo, po, 200 mg): 1.53 L/h
Reduction of first pass metabolite concentration vs oral dosage form for oral systemic administration [2]: 48-55%

SMILES: CN1CCc2cc(Cl)c(O)cc2C2c3ccccc3CC21 (stereo not drawn) [CH2/0/trans/Cl/OH]
Ki (^3H-Spip binding site): 2.6 µM
Ki (^3H-23390 binding site): 0.01 µM

SMILES: CN1CCc2cc(Cl)c(O)cc2[C@H]2c3ccccc3CC[C@@H]21 [CH2/1/7b(R):7a(S)(−)/Cl/OH]
CAR (MED) ([3]; po): 30 (po)

SMILES: CN1CCc2cc(Cl)c(O)cc2[C@@H]2c3ccccc3CC[C@H]21 [CH2/1/7b(S):7a(R)(+)/Cl/OH]
CAR (MED) ([3]; po): >30 (po)

SMILES: COc1cc2c(cc1O)C1c3ccccc3CCC1N(C)CC2 (stereo not drawn) [CH2/1/cis/CH3O/OH]
Ki (^3H-Spip binding site): > 100 µM
Ki (^3H-23390 binding site): 6.45 µM

SMILES: Cc1cc2c(cc1O)C1c3ccccc3CCC1N(C)CC2 (stereo not drawn) [CH2/1/trans/CH3/OH]
Ki (^3H-Spip binding site): 7.2 µM
Ki (^3H-23390 binding site): 0.119 µM

SMILES: COc1cc2c(cc1O)C1c3ccccc3CCC1N(C)CC2 (stereo not drawn) [CH2/1/trans/CH3O/OH]
Ki (^3H-Spip binding site): 2.5 µM
CAR (MED) ([3]; po): 30 (po);
CAR (MED) ([3]; sc): 0.3-1 (sc)
Ki (^3H-23390 binding site): 0.023 µM

SMILES: CN1CCc2cc(Cl)c(N)cc2C2c3ccccc3CCC21 (stereo not drawn) [CH2/1/trans/Cl/NH2]
Ki (^3H-Spip binding site): 4.17 µM
CAR (MED) ([3]; po): 3 (po)
Ki (^3H-23390 binding site): 0.07 µM

SMILES: CN1CCc2cc(Cl)c(O)cc2C2c3ccccc3CCC21 (stereo not drawn) [CH2/1/trans/Cl/OH]
CAR (MED) ([3]; po): 30 (po);
CAR (MED) ([3]; sc): 0.3 (sc)

SMILES: CN1CCc2ccc(O)cc2C2c3ccccc3CCC21 (stereo not drawn) [CH2/1/trans/H/OH]
Ki (^3H-Spip binding site): 3.5 µM
Ki (^3H-23390 binding site): 0.03 µM

SMILES: COc1cc2c(cc1O)C1c3ccccc3CCCC1N(C)CC2 (stereo not drawn) [CH2/2/trans/CH3O/OH]
Ki (^3H-Spip binding site): > 100 µM
CAR (MED) ([3]; sc): 10 (sc)
Ki (^3H-23390 binding site): 0.292 µM

SMILES: COc1cc2c(cc1O)CCN(C)C1CCCc3ccccc3C21 (stereo not drawn) [CH2/2/trans/HO/CH3O]
Ki (^3H-Spip binding site): > 100 µM
CAR (MED) ([3]; sc): 10 (sc)
Ki (^3H-23390 binding site): 7.73 µM

SMILES: CN1CCc2cc(Cl)c(O)cc2[C@H]2c3ccccc3CC[C@@H]21.Cl [Ecopipam HCl]
solubility at 24 h ([4]; pH 1.2, simulated gastric fluid, pH 1.2 HCl buffer, 50 mM, up to 24 hours, final pH 1.23): 1560 µg/mL
solubility at 24 h ([4]; pH 1.61, fassgf or other biorelevant, FaSSGF, final pH 1.61): 2000 µg/mL
solubility at 24 h ([4]; pH 3, aqueous buffer, pH 3.0 citrate buffer, 100 mM, up to 24 hours, final pH 2.96): 9400 µg/mL
solubility at 24 h ([4]; pH 3, aqueous buffer, pH 3.0 phthalate buffer, 50 mM, up to 24 hours, final pH 3.05): 8 µg/mL
solubility at 24 h ([4]; pH 4.5, aqueous buffer, pH 4.5 acetate buffer, 50 mM, up to 24 hours, final pH 4.50): 3300 µg/mL
solubility at 24 h ([4]; pH 5.5, aqueous buffer, pH 5.5 acetate buffer, 50 mM, up to 24 hours, final pH 5.49): 230 µg/mL
solubility at 24 h ([4]; pH 5.84, fessif, FeSSIF-V2, final pH 5.84): 660 µg/mL
solubility at 24 h ([4]; pH 6.49, fassif, FaSSIF-V2, final pH 6.49): 50 µg/mL
solubility at 24 h ([4]; pH 6.8, aqueous buffer, pH 6.8 phosphate buffer, 50 mM, up to 24 hours, final pH 6.85): 20 µg/mL
Solubility ([4]; FaSSGF, final pH 1.61): 2020 µg/mL
XRPD (crystalline form after solubility test) ([4]; FaSSIF-V2): Changed
XRPD (crystalline form after solubility test) ([4]; FeSSIF-V2): Changed
Time stable in bio-relevant media ([4]; bio-relevant media at 37° C., degradation occurred from 3 hours): up to 1 hour
Purity at 24 hours in solubility test ([4]; pH 1.2 HCl buffer, 50 mM): 99.87%
XRPD (crystalline form after solubility test) ([4]; pH 3.0 citrate buffer, 100 mM): did not exhibit a change in crystallinity
Purity at 24 hours in solubility test ([4]; pH 3.0 citrate buffer, 100 mM): 99.87%
Solubility ([4]; pH 3.0 citrate buffer, 100 mM, up to 24 hours, final pH 2.96): 9420 µg/mL
XRPD (crystalline form after solubility test) ([4]; pH 3.0 phthalate buffer, 50 mM): Changed
XRPD (crystalline form after solubility test) ([4]; pH 4.5 acetate buffer, 50 mM): Changed
Purity at 24 hours in solubility test ([4]; pH 4.5 acetate buffer, 50 mM): 99.85%
XRPD (crystalline form after solubility test) ([4]; pH 5.5 acetate buffer, 50 mM): Changed
Purity at 24 hours in solubility test ([4]; pH 5.5 acetate buffer, 50 mM): 100.00%
XRPD (crystalline form after solubility test) ([4]; pH 6.8 phosphate buffer, 50 mM): Changed
Purity at 24 hours in solubility test ([4]; pH 6.8 phosphate buffer, 50 mM): 100.00%

SMILES: CN1CCc2ccc(O)cc2C2c3ccccc3OCC21 (stereo not drawn) [O/1/trans/H/OH]
Ki (^3H-23390 binding site): 0.121 µM

SMILES: CN1CCc2cc(Cl)c(O)cc2[C@H]2c3ccccc3CC[C@@H]21.Cl [[^14C]-ecopipam HCl]
Median time of the maximum observed concentration of total radioactivity in whole blood ([1]; single oral dose 200 mg): 2.00 hours postdose
Arithmetic mean radioactivity recovered in feces [1, 12]: 8.27%
Arithmetic mean radioactivity recovered in urine [1, 12]: 83.3%

SMILES: CN1CCc2cc(Cl)c(O[C@@H]3O[C@H](C(=O)O)[C@@H](O)[C@H](O)[C@H]3O)cc2C2c3ccccc3CCC21 (stereo partly drawn) [ecopipam glucuronide, ecopipam O-β-D-glucuronide]
Share of radioactivity in plasma [1, 13]: 80%
Share of radioactivity in the urine [1, 13]: 67%
Ratio of SL/oral AUC [5, 14]: 0.15
Ratio of SL/oral Cmax [5, 14]: 0.24
Reduction of first pass metabolite concentration vs oral dosage form for oral systemic administration ([5]; sublingual / intraoral dosage form): 76-85% and 75-85%
Lower Cmax [6]: 23%
Lower Cmax [7]: 22%
Lower Cmax [8]: 15%

half-life ([1]; male, human, plasma, single oral dose 200 mg [14C]-ecopipam HCl, read-out: Geometric mean apparent terminal elimination half-life (t½) of analyte (converted)): 17.3 h
CL renal ([1]; male, human, urine, single oral dose 200 mg [14C]-ecopipam HCl, read-out: Geometric mean renal clearance (converted)): 4.73 mL/min
Share of the radiolabeled dose found as ecopipam in plasma ([1]; oral systemic administration): about 1.69%
Median time of the maximum observed concentration of analyte in plasma [1, 15]: 2.00 hours postdose
Percentage of dose excreted in urine as analyte (geometric mean) [1, 15]: < 1%
Unchanged compound in feces, share of the total administered dose [1, 15]: 6%
Increase in AUC∞ [6]: 40853 glucuronide, a ~2.1x increase
Lower Cmax and AUC∞ [7]: substantially (72-77%) lower Cmax
SMILES: CN1CCc2cc(Cl)c(O)cc2[C@H]2c3ccccc3CC[C@@H]21 [ecopipam, (−)-trans-6,7,7a,8,9,13b-hexahydro-3-chloro-2-hydroxy-N-methyl-5H-benzo [d]-naphtho-[2,1-b]azepine]
Increase in odds of being a responder at 12 weeks per 100 unit increase in combined steady-state AUC of ecopipam and EBS-101-40853 [9]: 6.8%
Exposure-response relationship for QTc [10]: exposure-response relationship
Relationship between plasma Cmax or AUCinf and choice reaction time or visual analogue scale for sedation [10]: no relationship
10 msec increase in ΔΔQTcF interval ([11]; single dose ecopipam 179.2 mg + a general UGT inhibitor): cannot be ruled out
10 msec increase in ΔΔQTcF interval ([11]; single dose ecopipam 179.2 mg): can be ruled out
Effect on QTcF [11, 16]: increase
Predicted increase in ΔΔQTcF interval [11, 16]: up to 20.4 msec
Effect on HR, QRS, or PR intervals ([11]; single doses 179.2 mg and 537.6 mg): no effect
